27 molecules from US20070232527A1, “Medicaments and methods combining a HCV protease inhibitor and an AKR competitor” (priority 2005, published 2007) can be followed below.

Data set [1] has as its system cytosolic enzymes that convert Formula Ia to Formula Ia′. Description: in vitro. The settings on record: human.
Experimental: (§3) All incubations contained 3 mM magnesium chloride and NADPH-generating system in 0.5 mL of 50 mM potassium phosphate buffer, pH 7.4. Prior to the addition of drug, incubation mixtures were preincubated for 2 min at 37° C. […] The incubation mixtures were vortexed and centrifuged (˜10,000 g) at 4° C. for 10 min; supernatants were analyzed by HPLC coupled with radiometric detector. Heat activated S9 cofactor or mitochondria were used as control. For LC-MS analysis, supernatants were concentrated in SpeedVac for 3 hrs. Incubation volumes were 0.5 mL and the final concentration of the organic solvents in the incubation system was less than 1% (v/v).
(§4) The mobile phase consisted of 10 mM ammonium acetate adjusted to pH 7.0 with 1% ammonium hydroxide (A) and 100% methanol (B).
For data set [2] the test system is unchanged. Briefly: Inhibition of metabolism of 14C-Formula Ia to Formula Ia′ in human liver cytosol. The following applies: human; for inhibition at 120 min: pH 7.4.
Experimental: as §3, §4
The nature of data set [3]: In vivo inhibition study of Formula Ia with AKR competitor diflunisal, plasma PK. The settings on record: cynomolgus monkeys plasma; as a function of diflunisal dose 0, 62.5, 125, 250 mg. As to the method:
An in vivo study was conducted in cynomolgus monkeys where 200 mg Formula Ia and 0 (control), 62.5, 125, or 250 mg diflunisal (Dolobid) was administered as illustrated below. All six monkeys were first dosed with Formula Ia with blood samples collected over a 12 hr period for plasma pharmacokinetics (PK) of Formula Ia prior to administration of diflunisal (dose-escalation). Four doses of diflunisal were subsequently administered every 12 hr with Formula Ia administered at each 4th diflunisal dose after which blood samples were collected for PK assessment of Formula Ia. The following chart summarizes the timing of Formula Ia and diflunisal administration.

Another data set deals with T1, AKR1C3 (Homo sapiens, UniProt P42330).
T1 sequence (P42330 1-323): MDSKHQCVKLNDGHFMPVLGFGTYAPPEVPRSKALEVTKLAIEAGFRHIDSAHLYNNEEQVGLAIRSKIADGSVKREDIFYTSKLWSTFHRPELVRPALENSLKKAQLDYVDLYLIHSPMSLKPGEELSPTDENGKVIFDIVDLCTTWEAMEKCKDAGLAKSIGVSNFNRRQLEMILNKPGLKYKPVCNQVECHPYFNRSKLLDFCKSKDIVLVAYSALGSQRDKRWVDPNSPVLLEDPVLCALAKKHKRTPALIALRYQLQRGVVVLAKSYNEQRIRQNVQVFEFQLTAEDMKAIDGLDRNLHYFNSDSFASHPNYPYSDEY
Briefly: Incubation with S9 fraction of recombinant human AKR1C3. It is filed as in vitro ADME. The settings on record: 20 μM 14C-radiolabeled compound; S9 2.5 mg protein/mL; NADPH. The arrangement: made in house. As to the method: (§1) Recombinant human AKRs (AKR1C2, AKR1C3 and AKR1C4) were grown, sonicated and centrifuged at ˜10,000 g to obtain S9 fractions. Incubations of ^14C-radiolabeled compound of Formula Ia, ^14C-radiolabeled compound of Formula Ib and ^14C-radiolabeled compound of Formula Ic (all at 20 μM) with S9-fractions from three recombinant human AKRs (2.5 mg protein/mL) were conducted as described above. [drawing 161]
(§2) The samples were analyzed by HPLC-coupled with radiometric detector and confirmed by LC-MS.

The target of another data set is T2, AKR1C2 (Homo sapiens, UniProt P52895).
T2 sequence (P52895 1-323): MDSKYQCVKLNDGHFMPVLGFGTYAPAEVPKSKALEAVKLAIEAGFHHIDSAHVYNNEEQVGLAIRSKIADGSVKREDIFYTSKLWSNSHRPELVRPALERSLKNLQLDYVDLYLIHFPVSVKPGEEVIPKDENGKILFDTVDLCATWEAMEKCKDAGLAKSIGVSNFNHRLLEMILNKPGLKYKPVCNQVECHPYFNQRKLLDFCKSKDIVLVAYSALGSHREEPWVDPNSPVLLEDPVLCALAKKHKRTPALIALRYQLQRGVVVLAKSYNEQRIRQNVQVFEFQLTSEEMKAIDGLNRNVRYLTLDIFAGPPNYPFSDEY
Briefly: Incubation with S9 fraction of recombinant human AKR1C2. Format: in vitro ADME. The settings on record: 20 μM 14C-radiolabeled compound; S9 2.5 mg protein/mL; NADPH. The arrangement: made in house. The protocol: as §1, §2

Data set [4] deals with cytosolic enzymes that convert Formula Ia to Formula Ia′. Description: Inhibition of metabolism of 14C-Formula Ia to Formula Ia′ in human liver S9. Format: in vitro ADME. The following applies: human, pH 7.4.
[5] abbreviates: pH 7.4, % Inhibition on Metabolite Formation of Compound Formula Ia.
Setting [6] is: pH 7.4, % of Inhibition on Metabolite Formation of Compound Formula Ia.
Setting [7] is: pH 7.4, inhibited formation of the compound of Formula Ia′.

Turning to `Oc1ncnc2[nH]ncc12` [Allopurinol], in the data set on human liver cytosol, the “inhibited formation of the compound of Formula Ia′” value was “no inhibition”. Also, in data set [1] (setting [5]), the inhibition at 2 h, 100 µM stood at 2%.
In the case of `CC(C)=CCC/C(C)=C/COc1c2ccoc2cc2oc(=O)ccc12` [Bergamottin], the inhibition at 2 h, 10 µM in data set [1] (setting [6]) amounted to 10%.
Consider `Cc1ccc(-c2cc(C(F)(F)F)nn2-c2ccc(S(N)(=O)=O)cc2)cc1` [Celecoxib], for which, in data set [1] (setting [5]), the inhibition at 120 min, 2 μM came out at 8.42%; the inhibition at 120 min, 10 μM came to 9.18%; the inhibition at 120 min, 50 μM amounted to 20.5%. Moreover, the inhibition at 2 h, 50 µM in data set [1] (setting [6]) was 20.5%.
In the case of `O=C(O)Cc1ccccc1Nc1c(Cl)cccc1Cl` [Diclofenac], the inhibition at 2 h, 7 µM in data set [1] (setting [6]) was 57.3%.
Regarding `CCc1cccc2c3c([nH]c12)C(CC)(CC(=O)O)OCC3` (stereo not shown) [Etodolac], the inhibition at 2 h, 100 µM in data set [1] (setting [6]) came to 3.74%.
For `CC(C(=O)O)c1cccc(Oc2ccccc2)c1` (stereo not shown) [Fenoprofen], the inhibition at 2 h, 80 µM in data set [1] (setting [6]) is 14.2%.
In the case of `O=C(O)c1ccccc1Nc1cccc(C(F)(F)F)c1` [Flufenamic acid, N-(3-trifluoromethylphenyl)anthranilic acid], the inhibition at 2 h, 100 µM in data set [1] (setting [5]) amounted to 80.3%. In data set [1] (setting [7]), this molecule gave an inhibition at 120 min of 80.3%.
For the molecule `CN1C(=O)CN=C(c2ccccc2F)c2cc([N+](=O)[O-])ccc21` [Flunitrazepam], the inhibition at 120 min in data set [2] was 51%.
Regarding `CC(C(=O)O)c1ccc(-c2ccccc2)c(F)c1` (stereo not shown) [Flurbirofen], the inhibition at 2 h, 50 µM in data set [1] (setting [6]) amounted to 31.6%.
Turning to `CC(C)(C)NC(=O)N[C@H](C(=O)N1C[C@H]2[C@@H]([C@H]1C(=O)N[C@H](CC1CCC1)C(=O)C(N)=O)C2(C)C)C(C)(C)C` [Formula Ib], the “AUC ratio (Formula Ia′ to AUC for the compound)” value in data set [3] is reported as “decline”. The “metabolism by recombinant AKR1C3” value at AKR1C3 is “preferentially metabolized”.
Turning to `CC(C)(C)NC(=O)N[C@H](C(=O)N1C[C@H]2[C@@H]([C@H]1C(=O)N[C@@H](CC1CCC1)C(=O)C(N)=O)C2(C)C)C(C)(C)C` [Formula Ic, (1R,2S,5S)—N-[(1S)-3-amino-1-(cyclobutylmethyl)-2,3-dioxopropyl]-3-[(2S)-2-[[[(1,1-dimethylethyl)amino]carbonyl]amino]-3,3-dimethyl-1-oxobutyl]-6,6-dimethyl-3-azabicyclo[3.1.0]hexane-2-carboxamide], the “AUC ratio (Formula Ia′ to AUC for the compound)” value in data set [3] is “decline”. Further, the “metabolism by recombinant AKR1C2” value at AKR1C2 is recorded as “preferentially metabolized”.
Turning to `Cc1ccc(C)c(OCCCC(C)(C)C(=O)O)c1` [Gemfibrozil, 5-(2,5-dimethylphenoxy)-2,2-dimethylpentanoic acid], in data set [1] (setting [5]), the inhibition at 120 min, 100 µM was 27.4% and the inhibition at 120 min, 100 μM amounted to 27.4%.
For `CC(C)Cc1ccc(C(C)C(=O)O)cc1` (stereo not shown) [Ibuprofen], in data set [1] (setting [5]), the inhibition at 120 min, 50 µM came out at 21.9%; the inhibition at 120 min, 50 μM was 31.3%; the inhibition at 120 min, 100 µM was determined as 31.4%; the inhibition at 120 min, 100 μM worked out at 33.4%. In addition, in data set [1] (setting [5]), the inhibition at 120 min, 200 µM was 40.7%; the inhibition at 120 min, 200 μM stood at 43.3%; the inhibition at 120 min, 500 µM was found to be 56.6%; the inhibition at 120 min, 1000 µM turned out to be 70%. Further, the inhibition at 120 min, 1000 μM in data set [1] (setting [5]) was 70%. Also, in data set [1] (setting [6]), the inhibition at 2 h, 200 µM turned out to be 43.3%. The molecule further came in with an inhibition at 120 min in data set [1] (pH 7.4, inhibited metabolism of 14C-radiolabeled compound of Formula Ia) of 70%.
For the molecule `COc1ccc2c(c1)c(CC(=O)O)c(C)n2C(=O)c1ccc(Cl)cc1` [Indomethacin], in data set [1] (setting [5]), the inhibition at 120 min, 100 µM was found to be 19% and the inhibition at 120 min, 100 μM came to 19%. In addition, in data set [1] (setting [6]), the inhibition at 2 h, 100 µM was found to be 19%.
For `O=C(c1ccccc1)c1ccc2n1CCC2C(=O)O` (stereo not shown) [Ketorolac], in data set [1] (setting [6]), the inhibition at 2 h, 4 µM is 0%.
`Cc1cccc(Nc2ccccc2C(=O)O)c1C` [Mefenamic acid]: in data set [1] (setting [6]), the inhibition at 2 h, 1 µM was 14.6% and the inhibition at 2 h, 10 µM was found to be 51.1%.
`CC1=CC(=O)c2ccccc2C1=O` [Menadione]: the results for the inhibition at 120 min, 100 µM in data set [4] and in data set [1] (setting [7]) were 18% and 30%, respectively. In data set [1] (setting [5]), the inhibition at 2 h, 100 µM is 29.7%.
The molecule `Cc1ncc2n1-c1ccc(Cl)cc1C(c1ccccc1F)=NC2` [Midazolam] yielded an inhibition at 120 min in data set [2] of 37%.
With `COc1ccc2cc(CCC(C)=O)ccc2c1` [Nabumetone], the inhibition at 2 h, 200 µM in data set [1] (setting [6]) was determined as 42.4%.
For the molecule `O=C1C[C@@H](c2ccc(O)cc2)Oc2cc(O)cc(O)c21` [Naringenin], the inhibition at 2 h, 500 µM in data set [2] (pooled human liver cytosol, pH 7.4, probe 14C-radiolabeled compound of Formula Ia (20 μM), % of Inhibition on Metabolite Formation of Compound Formula Ia, Table 5, human liver cytosol, 2 hr incubation, 500 μM) came to 86.7%.
Take `O=C(O)CCc1nc(-c2ccccc2)c(-c2ccccc2)o1` [Oxaprozin]: in data set [1] (setting [6]), the inhibition at 2 h, 500 µM was 76.1%.
As for `C#CCN(C)Cc1ccccc1` [Pargyline], the “inhibited formation of the compound of Formula Ia′” value with human liver cytosol is listed as “no inhibition”. In addition, the inhibition at 2 h, 1 µM in data set [1] (setting [5]) was determined as 0%.
Take `O=C1OC(c2ccc(O)cc2)(c2ccc(O)cc2)c2ccccc21` [Phenolphthalein]: the inhibition at 120 min, 100 μM in data set [1] (setting [5]) came to 86.1%. The molecule also came in with an inhibition at 120 min in data set [1] (setting [7]) of 86.1%.
In the case of `O=c1c(O)c(-c2ccc(O)c(O)c2)oc2cc(O)cc(O)c12` [Quercetin], the inhibition at 120 min, 100 µM in data set [4] came to 9.3%; in data set [1] (setting [7]), 33.4%. Also, in data set [1] (setting [5]), the inhibition at 2 h, 100 µM was determined as 33.4%.
On to `NC(=O)c1ncn([C@@H]2O[C@H](CO)[C@@H](O)[C@H]2O)n1` [Ribavirin], for which, in data set [1] (setting [5]), the inhibition at 120 min, 10 μM came out at 1.76% and the inhibition at 120 min, 30 μM was 0%.
Turning to `CC1=C(CC(=O)O)c2cc(F)ccc2/C1=C\c1ccc([S+](C)[O-])cc1` (stereo not shown) [Sulindac], in data set [2] (pooled human liver cytosol, pH 7.4, probe 14C-radiolabeled compound of Formula Ia (20 μM), % of Inhibition on Metabolite Formation of Compound Formula Ia, Table 5, human liver cytosol, 2 hr incubation, 30 μM), the inhibition at 2 h, 30 µM was 19%.
Take `Cc1ccc(C(=O)c2ccc(CC(=O)O)n2C)cc1` [Tolmetin]: the inhibition at 2 h, 125 µM in data set [1] (setting [6]) was 2.14%.
